Reference: US9539270B2, “Methods for providing sialylated oligosaccharides” (priority 2011, dated 2017)

Biological target: T1, Trypanosoma cruzi trans-sialidase (TcTS) (Trypanosoma cruzi, UniProt Q26966)
T1 construct: 6xHis (N); made in house; host or cells: E. coli TOP10 or BL21(DE3)
Assay: Affinity of TcTS for the sialic acid donor substrates (kinetic incubations with lactose as acceptor)
Assay type: biochemical
Conditions: TcTS 4.5 mU/ml; 0.1-10.0 mM 4MU-Neu5Ac as donor; 1 mM lactose as acceptor
Description: In kinetic experiments with partially purified TcTS, 4MU-Neu5Ac or industrially available κ-casein-derived glycomacropeptide (GMP) as donors and lactose as acceptor, the formation of 3′SL was quantitatively determined after 15 and 30 min of incubation, making use of high-pH anion-exchange chromatography with pulsed amperometric detection (HPAEC-PAD). For both donors, the optimal temperature for the transfer reaction, deduced from a series of temperatures ranging from 15-50° C., with increments of 5° C., turned out to be 25° C., which is similar to the optimal temperature reported in literature (Scudder et al., J. Biol. Chem. 268: 9886-9891, 1993).
The affinity of TcTS for the sialic acid donor substrates 4MU-Neu5Ac and GMP was tested by performing incubations (4.5 mU/ml) with an appropriate range of these substrates and a fixed concentration of lactose as acceptor.

T1 sequence (Q26966 entry or part of it): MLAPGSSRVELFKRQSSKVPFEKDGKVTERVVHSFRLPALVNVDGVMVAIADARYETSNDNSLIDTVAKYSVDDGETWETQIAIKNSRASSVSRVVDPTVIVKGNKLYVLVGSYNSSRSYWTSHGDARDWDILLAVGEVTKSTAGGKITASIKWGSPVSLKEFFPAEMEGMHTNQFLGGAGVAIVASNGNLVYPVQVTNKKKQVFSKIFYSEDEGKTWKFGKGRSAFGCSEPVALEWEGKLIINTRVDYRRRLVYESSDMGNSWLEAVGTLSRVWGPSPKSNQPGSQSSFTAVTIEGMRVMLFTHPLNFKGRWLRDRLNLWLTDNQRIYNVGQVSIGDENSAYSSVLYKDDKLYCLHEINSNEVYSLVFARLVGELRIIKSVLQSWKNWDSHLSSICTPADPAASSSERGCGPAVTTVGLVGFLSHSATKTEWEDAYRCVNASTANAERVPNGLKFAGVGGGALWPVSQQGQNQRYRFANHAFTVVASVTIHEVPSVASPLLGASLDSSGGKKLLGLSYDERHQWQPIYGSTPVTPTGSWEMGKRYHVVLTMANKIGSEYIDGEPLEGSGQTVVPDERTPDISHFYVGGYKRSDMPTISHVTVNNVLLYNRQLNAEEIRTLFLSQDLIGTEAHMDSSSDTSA

CC(=O)N[C@H]1[C@H]([C@H](O)[C@H](O)CO)OC(Oc2ccc3c(C)cc(=O)oc3c2)(C(=O)O)C[C@@H]1O (stereo partly drawn) [4MU-Neu5Ac, 2′-(4-methylumbelliferyl)-α-N-acetylneuraminic acid]
Km: 1650 µM
Vmax: 1.5 U/mg
